Where two headings read alike, the source gives them in different places.
Legend:
[1] = system: Salmonella typhimurium TA98; assay: Mini-Salmonella/mammalian-microsome reverse mutation assay TA98; conditions: for Revertants per well TA98, Mean: * positive increase
Experimental: (§1) The tester strains used in the mutagenicity assay were Salmonella typhimurium tester strains TA98 (for detecting frame-shift reverse mutation) and TA100 (for detecting point reverse mutation). The assay was conducted in both the presence and absence of S9 mixture along with concurrent vehicle (DMSO, 20 μl/well) and positive controls in duplicate using 6-well plates. […] A reproducible two-fold increase (>2× of vehicle control) of revertant colonies over the daily average control value is considered a positive response of gene mutation for each strain.
(§2) 2-nitrofluorene and sodium azide served as the positive controls in the absence of S9 for TA98 and TA100 respectively. 2-Aminoanthracene served as the positive controls in the presence of S9 for TA98 and TA100.

[2] = system: Salmonella typhimurium TA100; conditions: for Revertants per well TA100, Mean: * positive increase
Experimental: as §1, §2

Raf, MEK, and ERK = assay: Western blot of RAF-MEK-ERK pathway in H460, A375, BT-474 and H1975 cells; assay type: cell-based; conditions: 100 nM, 16 hours
Experimental: Cell extracts were prepared in the presence of SDS and 2-mercaptoethanol and resolved in polyacrylamide gels. Proteins were transferred to nitrocellulose filter and blotting was done using standard procedures with blocking solutions (Li-Cor Bioscience) containing the indicated primary antibody. Primary antibodies against p-EGFR, EGFR, p-HER2, HER2, p-HER3, HER3, p-MET, MET, p-bRaf, p-cRaf, pMEK, MEK, p-ERK, ERK and tubulin were purchased from Cell Signaling Technology. Secondary antibody conjugated with IRdye 680, 800CW were used and the signal was detected with Li-Cor Odyssey Imager.
One major limitation of PI3K inhibitors in the treatment of cancers is the activation of the RAF-MEK-ERK pathway. HDAC inhibitors are able to inhibit kinase levels in this signaling pathway in cancer cells via epigenetic modification.

[3] = +S9, positive control 0.8 μg/well
[4] = −S9, positive control 0.4 μg/well
[5] = −S9, positive control 2.0 μg/well

## Nc1ccc2cc3ccccc3cc2c1 [2-aminoanthracene, reference compound]
[1]; [3]
  Background Lawn TA98: 4/4
  Revertants per well TA98, well 1: >300
  Revertants per well TA98, well 2: >300
  Revertants per well TA98, Mean: >300*
[2]; [3]
  Background Lawn TA100: 4/4
  Revertants per well TA100, well 1: >300
  Revertants per well TA100, well 2: >300
  Revertants per well TA100, Mean: >300*

## O=[N+]([O-])c1ccc2c(c1)Cc1ccccc1-2 [2-nitrofluorene, reference compound]
[1]; [4]
  Background Lawn TA98: 4/4
  Revertants per well TA98, well 1: 55
  Revertants per well TA98, well 2: 63
  Revertants per well TA98, Mean: 59*

## Cc1[nH]c2ccccc2c1CCNCc1ccc(/C=C/C(=O)NO)cc1 [LBH 589, reference compound]
Raf, MEK, and ERK
  Activation of Raf, MEK, and ERK: showed similar activities in some of these Western blot assays

## [N-]=[N+]=[N-] [Sodium azide, reference compound]
[2]; [5]
  Background Lawn TA100: 4/4
  Revertants per well TA100, well 1: >300
  Revertants per well TA100, well 2: >300
  Revertants per well TA100, Mean: >300*

Source: patent publication US11654136B2, “Phosphoinositide 3-kinase inhibitor with a zinc binding moiety” (Curis, Inc., priority 2011, dated 2023)
